Data on 11 compounds can be found in ChEMBL document CHEMBL1146663, “Anti-inflammatory flavonoids and pterocarpanoid from Crotalaria pallida and C. assamica” (Bioorg Med Chem Lett, 2004).

Experiment [1] is filed under the species Mus musculus. Put plainly: Inhibitory effect of compound on the accumulation of NO2 in the culture media of N9 cells in response to LPS/IFN-gamma. The class given is functional, cell-based.
Experiment [2] is filed under the species Rattus norvegicus. Put plainly: Inhibitory effect of compound on superoxide anion generation in rat neutrophils stimulated with PMA. The format is functional.
The species entered for experiment [3] is Rattus norvegicus. Put plainly: Inhibitory effect of compound on superoxide anion generation in rat neutrophils stimulated with fMLP/CB. The class given is functional.
For experiment [4], the species on record is Mus musculus. Kind of experiment: Inhibitory effect of compound on the accumulation of NO2 in the culture media of RAW 264.7 cells in response to LPS. The class given is functional, cell-based.
The species entered for experiment [5] is Mus musculus. Put plainly: Inhibitory effect of compound on the accumulation of NO2 in the culture media of RAW 264.7 cells in response to LPS; potent effect. The class given is functional.
Experiment [6] is filed under the species Mus musculus. Put plainly: Inhibitory effect of compound on the accumulation of NO2 in the culture media of N9 cells in response to LPS/IFN-gamma; potent effect. The format is functional.

Where only a bound is given, the exact number is not on record here.

For the compound `O=c1c(O)c(-c2ccc(O)cc2)oc2cc(OC3O[C@H](CO)[C@@H](O)[C@H](O)[C@H]3O)cc(O)c12` (stereo partly specified), the IC50 in the experiment listed under Mus musculus [1], in the experiment filed under Rattus norvegicus [2], in the experiment listed under Rattus norvegicus [3] and in the experiment listed under Mus musculus [4] was over 30 µM each time.

With `O=c1cc(-c2ccc(O)cc2)oc2cc(O)ccc12`, the IC50 in the experiment filed under Mus musculus [1], in the experiment listed under Rattus norvegicus [2], in the experiment listed under Rattus norvegicus [3] and in the experiment listed under Mus musculus [4] was over 30 µM in each case.

Take `O=c1c(-c2ccc(O)cc2O)coc2cc(O)cc(O)c12`: the IC50 in the experiment filed under Mus musculus [1], in the experiment listed under Rattus norvegicus [2], in the experiment listed under Rattus norvegicus [3] and in the experiment filed under Mus musculus [4] was over 30 µM throughout.

Turning to `O=c1c(-c2ccc(O)cc2O)coc2cc(O)ccc12`, the 50% inhibitory concentration (IC50) in the experiment filed under Mus musculus [1] is over 30 µM; in the experiment listed under Rattus norvegicus [2] it was over 30 µM; in the experiment listed under Rattus norvegicus [3], 25.1 µM; in the experiment filed under Mus musculus [4], over 30 µM.

For the compound `C[C@](O)(CO)c1cc2c3c(ccc2o1)[C@@H]1COc2cc(O)ccc2[C@@H]1O3`, the IC50 in the experiment filed under Mus musculus [1] was 13.9 µM; in the experiment listed under Rattus norvegicus [2], over 30 µM; in the experiment listed under Rattus norvegicus [3], over 30 µM; in the experiment filed under Mus musculus [4], over 30 µM.

On to `CC(=N)NCc1cccc(CN)c1` [1400W], for which the IC50 in the experiment listed under Mus musculus [1] turned out to be 2.2 µM; in the experiment listed under Mus musculus [4] it was 6.1 µM.

`O=c1cc(-c2ccc(O)cc2)oc2cc(O)cc(O)c12` [APIGENIN]: the IC50 is over 30 µM in the experiment filed under Mus musculus [1], over 30 µM in the experiment listed under Rattus norvegicus [2], 3.4 µM in the experiment filed under Rattus norvegicus [3] and 10.7 µM in the experiment listed under Mus musculus [4].

With `C=C(C)c1cc2c3c(ccc2o1)[C@@H]1COc2cc(O)ccc2[C@@H]1O3` [CROTAFURAN A], the half-maximal inhibitory concentration (IC50) entry in the experiment listed under Mus musculus [5] and in the experiment filed under Mus musculus [6] was “potent effect” in each case.

On to `CC(=O)c1cc2c3c(ccc2o1)[C@@H]1COc2cc(O)ccc2[C@@H]1O3` [CROTAFURAN B], for which the concentration for half-maximal inhibition (IC50) result in the experiment filed under Mus musculus [5] and in the experiment listed under Mus musculus [6] was “potent effect” throughout.

On to `COc1cc(O)ccc1-c1coc2cc(O)cc(O)c2c1=O` [THERALIN], for which the half-maximal inhibitory concentration (IC50) in the experiment listed under Mus musculus [1], in the experiment listed under Rattus norvegicus [2], in the experiment filed under Rattus norvegicus [3] and in the experiment listed under Mus musculus [4] was over 30 µM each time.

With `CN1CCN(CCCN2c3ccccc3Sc3ccc(C(F)(F)F)cc32)CC1` [TRIFLUOPERAZINE], the IC50 in the experiment listed under Rattus norvegicus [2] was determined as 2.7 µM; in the experiment listed under Rattus norvegicus [3], 6.6 µM.
